What was measured:
Experiment in all cases: relative viability (nuclei count vs DMSO), 5 days (fraction); higher = more cells survive
Vemurafenib = compound: CCCS(=O)(=O)Nc1ccc(F)c(C(=O)c2c[nH]c3ncc(-c4ccc(Cl)cc4)cc23)c1F [Vemurafenib]
In short: (§1)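 Viability is treated-well nuclei as a fraction of vehicle-well nuclei, reported as the median across plates. Before counting, lung cancer cell lines were kept overnight at 37 °C in 1536-well plates, pinned with five √10-spaced library-drug doses on vehicle-anchored plates, and left 5 days without medium change, then fixed, permeabilised and Hoechst-stained in one step, imaged at 4× and counted by MetaXpress. A plate passed only if control CV was below 25% and at least one doubling occurred.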

OSI-027 = compound: COc1cccc2cc(-c3nc([C@H]4CC[C@H](C(=O)O)CC4)n4ncnc(N)c34)[nH]c12 [OSI-027]
In short: as §1

Alpelisib = compound: Cc1nc(NC(=O)N2CCC[C@H]2C(N)=O)sc1-c1ccnc(C(C)(C)C(F)(F)F)c1 [Alpelisib]
In short: as §1

Row | Cell Line | relative viability (Vemurafenib; 0.03162 µM) | relative viability (Vemurafenib; 0.1 µM) | relative viability (Vemurafenib; 0.3162 µM) | relative viability (Vemurafenib; 1 µM) | relative viability (OSI-027; 0.01 µM) | relative viability (OSI-027; 0.03162 µM) | relative viability (OSI-027; 0.1 µM) | relative viability (OSI-027; 0.3162 µM) | relative viability (OSI-027; 1 µM) | relative viability (Alpelisib; 0.04 µM) | relative viability (Alpelisib; 0.1265 µM) | relative viability (Alpelisib; 0.4 µM) | relative viability (Alpelisib; 1.265 µM) | relative viability (Alpelisib; 2 µM, anchor plate) | relative viability (Alpelisib; 4 µM) | relative viability (OSI-027; 0.5 µM, anchor plate)
1 | NCI-H1299 | 1.01 | 0.98 | 0.895 | 0.991 | 1 | 0.995 | 1.02 | 1.06 | 0.825 | 1.03 | 1.04 | 1.07 | 0.988 | 1.04 | 0.945 | 
2 | NCI-H1355 | 0.933 | 0.908 | 0.925 | 0.96 | 0.985 | 0.985 | 0.898 | 0.823 | 0.444 | 0.944 | 0.96 | 1 | 0.876 | 0.855 | 0.867 | 0.451
3 | NCI-H1395 | 0.755 | 0.951 |  | 0.949 | 0.914 | 0.898 | 0.814 | 0.795 | 0.7 | 0.97 | 0.758 | 1 | 0.73 | 1.14 | 0.785 | 0.69
4 | NCI-H1437 | 0.904 | 0.958 | 0.974 | 1.05 | 1 | 0.921 | 1.01 | 0.914 | 0.565 | 1 | 0.948 | 1.06 | 0.864 | 0.965 | 0.89 | 0.881
5 | NCI-H1563 | 0.989 | 0.905 | 0.967 | 0.988 | 0.979 | 0.955 | 0.953 | 0.854 | 0.75 | 0.942 | 0.971 | 0.948 | 0.768 | 0.966 | 0.84 | 0.769
6 | NCI-H1623 | 0.977 |  | 1.23 | 0.99 | 1.1 | 0.912 | 1.02 | 0.77 | 0.427 | 0.853 | 0.893 | 1.07 | 0.629 |  | 0.631 | 0.433
7 | NCI-H1648 | 0.819 | 0.717 | 1.4 | 0.833 | 0.868 | 0.602 | 0.683 | 0.724 | 0.532 | 0.712 | 0.986 | 0.778 | 0.576 |  | 0.257 | 0.266
8 | NCI-H1650 | 0.774 | 0.701 | 0.924 | 1.01 | 0.937 | 0.843 | 0.912 | 0.893 | 0.421 | 0.935 | 0.801 | 1.06 | 0.814 |  | 0.815 | 0.689
9 | NCI-H1651 | 0.919 | 0.998 | 0.887 | 0.966 | 0.96 | 0.828 | 0.977 | 0.901 | 0.723 | 0.891 | 1.02 | 1.01 | 0.844 | 0.973 | 0.841 | 0.71
10 | NCI-H1666 | 0.946 | 0.902 | 1.1 | 0.926 | 0.99 | 0.986 | 0.98 | 0.88 | 0.666 | 0.997 | 0.98 | 1.13 | 0.84 | 0.977 | 0.8 | 0.863
11 | NCI-H1703 | 1.02 | 0.864 | 0.795 | 0.986 | 0.913 | 0.948 | 0.759 | 0.657 | 0.434 | 0.89 | 0.642 | 0.654 | 0.465 | 0.348 | 0.462 | 
12 | NCI-H1734 | 0.967 | 1.02 | 0.779 | 0.875 | 0.962 | 0.991 | 0.826 | 0.785 | 0.684 | 0.917 | 0.857 | 1 | 0.644 | 0.674 | 0.508 | 0.615
13 | NCI-H1755 | 0.958 | 0.969 | 0.823 | 0.957 | 0.983 | 0.921 | 0.988 | 0.898 | 0.78 | 0.989 | 1.01 | 0.986 | 0.876 | 0.942 | 0.853 | 0.745
14 | NCI-H1792 | 0.776 | 0.904 | 0.624 | 0.914 | 0.658 | 0.841 | 0.843 | 0.709 | 0.374 | 0.89 | 0.724 | 0.819 | 0.636 | 0.728 | 0.383 | 0.784
15 | NCI-H1793 | 0.836 |  | 0.775 | 0.867 | 0.902 | 0.976 | 0.781 | 0.579 | 0.295 | 0.851 | 0.89 | 0.919 | 0.731 | 0.792 | 0.626 | 0.284
16 | NCI-H1915 | 0.948 | 0.964 | 0.755 | 0.845 | 1.05 | 1.09 | 0.967 | 0.891 | 0.791 | 1.01 | 0.998 | 0.976 | 0.948 | 1.06 | 0.893 | 0.601
17 | NCI-H1944 | 0.939 | 0.772 | 0.895 | 0.933 | 0.916 | 0.915 | 0.808 | 0.743 | 0.567 | 0.94 | 1.13 | 0.915 | 0.79 | 0.842 | 0.447 | 0.457
18 | NCI-H1975 | 0.922 | 0.9 | 0.696 | 0.886 | 0.977 | 0.924 | 0.926 | 0.953 | 0.622 | 0.918 | 0.968 | 0.984 | 0.664 | 0.679 | 0.561 | 0.729
19 | NCI-H1993 | 0.844 |  | 0.993 | 0.974 | 0.803 | 0.817 | 0.704 | 0.611 | 0.438 | 0.862 | 0.86 | 0.961 | 0.698 | 0.707 | 0.609 | 0.558

Row | Cell Line | relative viability (Vemurafenib; 0.03162 µM) | relative viability (Vemurafenib; 0.1 µM) | relative viability (Vemurafenib; 0.3162 µM) | relative viability (Vemurafenib; 1 µM) | relative viability (OSI-027; 0.01 µM) | relative viability (OSI-027; 0.03162 µM) | relative viability (OSI-027; 0.1 µM) | relative viability (OSI-027; 0.3162 µM) | relative viability (OSI-027; 1 µM) | relative viability (Alpelisib; 0.04 µM) | relative viability (Alpelisib; 0.1265 µM) | relative viability (Alpelisib; 0.4 µM) | relative viability (Alpelisib; 1.265 µM) | relative viability (Alpelisib; 2 µM, anchor plate) | relative viability (Alpelisib; 4 µM) | relative viability (OSI-027; 0.5 µM, anchor plate)
20 | NCI-H2009 | 0.95 | 0.938 | 0.716 | 0.866 | 1.01 | 0.992 | 0.965 | 0.948 | 0.617 | 0.974 | 1.05 | 1.19 | 1.01 | 1.13 | 0.903 | 0.629
21 | NCI-H2023 | 0.915 | 0.863 | 0.908 | 0.957 | 0.952 | 0.855 | 0.819 | 0.566 | 0.377 | 0.876 | 0.928 | 0.93 | 0.649 | 0.6 | 0.5 | 0.429
22 | NCI-H2085 | 0.89 | 0.885 | 0.805 | 1.02 | 0.962 | 0.967 | 0.928 | 0.926 | 0.658 | 0.988 | 0.943 | 1.01 | 0.93 | 0.984 | 0.889 | 0.789
23 | NCI-H2087 | 1.01 | 1.11 |  | 1.13 | 0.986 | 1.03 | 0.911 | 0.911 | 0.508 | 1.21 | 1.02 | 1.08 | 0.868 | 1 | 0.85 | 0.605
24 | NCI-H2126 | 0.925 | 0.845 | 0.966 | 0.988 | 0.977 | 1.02 | 0.943 | 0.873 | 0.664 | 1.02 | 1.01 | 0.936 | 0.791 | 0.746 | 0.758 | 0.722
25 | NCI-H2170 | 0.92 | 0.674 | 0.936 | 0.964 | 0.941 | 0.881 | 0.959 | 0.797 | 0.654 | 0.946 | 0.868 | 1.07 | 0.769 | 0.825 | 0.621 | 0.716
26 | NCI-H2228 | 1.04 | 0.948 | 1.05 | 0.999 | 0.975 | 0.88 | 0.957 | 0.941 | 0.619 | 0.947 | 0.881 | 1.04 | 0.686 | 0.742 | 0.495 | 0.625
27 | NCI-H2342 | 0.938 | 0.94 | 0.86 | 0.992 | 0.975 | 0.949 | 0.966 | 0.843 | 0.649 | 0.927 | 1.05 | 0.926 | 0.79 |  | 0.675 | 0.622
28 | NCI-H2347 | 0.939 | 1.02 | 0.791 | 0.924 | 0.979 | 1.07 | 0.904 | 0.772 | 0.516 | 1.07 | 0.97 | 1.12 | 0.949 | 0.992 | 0.864 | 0.376
29 | NCI-H2405 | 0.945 | 0.955 |  | 0.98 | 0.981 | 0.981 | 0.887 | 0.795 | 0.518 | 1.02 | 0.965 | 0.973 | 0.824 | 0.749 | 0.703 | 0.646
30 | NCI-H3122 | 1.03 | 0.979 | 1.03 | 1.12 | 1.03 | 1.02 | 1.08 | 0.959 | 0.704 | 0.981 | 1.02 | 1.02 | 0.968 | 0.759 | 0.744 | 1.03
31 | PC-3 [JPC-3] | 0.972 |  | 0.971 | 1.18 | 1.01 | 0.993 | 1.03 | 0.918 | 0.698 | 1.1 | 1.03 | 1.13 | 0.943 | 0.999 | 1.01 | 0.745
32 | PC-14 | 0.94 |  | 0.864 | 1.01 | 1 | 1.04 | 0.965 | 0.979 | 0.765 | 1.01 | 1 | 1.03 | 0.89 | 0.908 | 0.973 | 0.815
33 | RERF-LC-KJ | 0.957 | 0.984 | 0.942 | 1.03 | 0.942 | 1.01 | 0.933 | 0.735 | 0.464 | 0.94 | 0.914 | 1.01 | 0.824 | 0.844 | 0.87 | 0.597
34 | SK-LU-1 | 0.95 | 0.958 | 0.669 | 0.978 | 1.08 | 0.974 | 0.916 | 0.608 | 0.425 | 1.07 | 0.977 | 1.03 | 0.855 | 0.922 | 0.812 | 0.328
35 | SK-MES-1 | 0.969 | 0.727 | 0.932 | 0.973 | 1.04 | 0.967 | 0.922 | 0.78 | 0.35 | 0.975 | 0.998 | 1.09 | 0.894 | 0.896 | 0.757 | 0.605
36 | SW 900 | 0.69 | 0.843 | 0.808 | 0.756 | 0.618 | 0.925 | 0.744 | 0.812 | 0.47 | 0.944 | 0.7 | 1 | 0.789 |  | 0.651 | 0.627
37 | SW 1573 | 0.916 | 0.927 | 0.957 | 0.941 | 0.951 | 0.892 | 0.938 | 0.878 | 0.655 | 0.98 | 0.916 | 0.94 | 0.704 | 0.733 | 0.649 | 0.671

Source: the supplement of paper PMC10307832
